Legend:
[1] = test system: sunburn injury on barley cultivar Finita; assay: Preventive action on winter barley against sunburn injury, field trial, two timings (Example 5); assay type: in vivo; details: applied at BBCH 53, Actives A & B 0.8 l/ha, UV Filter 2.0 l/ha, Surround 10 kg/ha, % destroyed leaf area
Method: The biological trial was conducted under field conditions in Germany. The barley cultivar […] was planted and grown under standard conditions with adequate supply of water and nutrients. At BBCH 53 0.8 l/ha of Actives A & B and 2.0 l/ha UV Filter A or B were applied. For comparison, the Surround® (commercially available from Engelhard Corp., wettable powder comprising 95 wt % kaolin) was applied at a rate of 10 kg/ha. The level of sunburn injury was evaluated 15 and 22 days after application (% estimation of destroyed leaf area).

[2] = test system: sunburn injury on winter barley; assay: Preventive action on winter barley against sunburn injury, field trial (Example 3); assay type: in vivo; details: Germany, applied at BBCH 53, evaluated 22 days after application, 0 = as untreated control, 100 = no sunburn symptoms, UV filter 2 L/ha (500 g ai/ha), Actives A & B 0.8 & 0.8 L/ha (240 & 297 g ai/ha)
Method: As active substance a mixture of active substances was used called “Actives A & B”, which was prepared by mixing Active A and Active B. Active A was a fungicidal suspension concentrate comprising 6 wt % epoxiconazol, 20.8 wt % boscalid, 11.2-12.6 wt % fatty alcohol alkoxylate, C8-alkyl glucoside, and phenolsulfonic acid-formaldehyde-polycondensate sodium salt (commercially available pesticide formulation from BASF SE as Champion®). Active B a fungicidal suspoemulsion comprising 20.6 wt % fenpropimorph, 11 wt % pyraclostrobin, 4.1 wt % epoxiconazol, 20.5 wt % solvent naphtha, 11 wt % fatty alcohol ethoxylate and 4.8 wt % phenolsulfonic acid-formaldehyde-polycondensate sodium salt (commercially available pesticide formulation from BASF SE as Diamant®). UV Filter A and UV filter B were prepared as described in examples 1 and 2.
The biological trial was conducted under field conditions in Germany. […] The level of sunburn injury was evaluated 22 days after application (% estimation of destroyed leaf area).
The sunburn injury assessments were converted into efficacies. […] The expected efficacies of active compound mixtures were determined using Colby's formula [R. S. Colby, “Calculating synergistic and antagonistic responses of herbicide combinations”, Weeds 15, 20-22 (1967)] and compared with the observed efficacies.

COCCOCCOCCOCCOCCOCCOCCOC(=O)C(C#N)=C(c1ccccc1)c1ccccc1 [UV Filter A, 2-Cyano-3,3-diphenyl-acrylsäure-[Pluriol A350E]-ester]
% sunburn injury 15 days after application [1]: 38% | % sunburn injury 22 days after application [1]: 96% | Efficacy [2]: 4

COCCOCCOCCOCCOCCOCCOCCOC(=O)CCc1cc(-n2nc3ccccc3n2)c(O)c(C(C)(C)C)c1 [UV Filter B, 3-(3-Benzotriazol-2-yl-5-tert-butyl-4-hydroxyphenyl)-propiosäure-[Pluriol A350E]-ester]
% sunburn injury 15 days after application [1]: 36% | % sunburn injury 22 days after application [1]: 97% | Efficacy [2]: 3

Source: patent US9232785B2, “Method for reducing sunburn damage in plants” (BASF SE, priority 2009, dated 2016)
